Assay [1] concerns the target Serine/threonine-protein kinase PRP4 homolog (Homo sapiens) (UniProt Q13523). Put plainly: Inhibition of T7 bacteriophage fused human PRP4 at 10 uM by KINOMEscan analysis relative to control.
Assay [2] relates to Hepatocyte growth factor receptor (Homo sapiens), P08581 [M1250T]. The assay can be described thus: Inhibition of T7 bacteriophage fused human MET M1250T mutant at 10 uM by KINOMEscan analysis relative to control; values are per cent of control.
Assay [3] deals with Mitogen-activated protein kinase kinase kinase 9 (Homo sapiens) (UniProt P80192). The assay can be described thus: Inhibition of T7 bacteriophage fused human MLK1 at 10 uM by KINOMEscan analysis relative to control; values are per cent of control.
The target in assay [4] is Serine/threonine-protein kinase TAO2 (Homo sapiens) (UniProt Q9UL54). The assay can be described thus: Inhibition of T7 bacteriophage fused human TAOK2 at 10 uM by KINOMEscan analysis relative to control.
The target in assay [5] is Mitogen-activated protein kinase 3 (Homo sapiens) (UniProt P27361). The assay can be described thus: Inhibition of T7 bacteriophage fused human ERK1 at 10 uM by KINOMEscan analysis relative to control.
The target of assay [6] is Cyclin-dependent kinase 17 (Homo sapiens) (UniProt Q00537). The assay can be described thus: Inhibition of T7 bacteriophage fused human PCTK2 at 10 uM by KINOMEscan analysis relative to control.
Assay [7] relates to Phosphatidylinositol 4,5-bisphosphate 3-kinase catalytic subunit alpha isoform (Homo sapiens), P42336 [E545K]. The assay can be described thus: Inhibition of T7 bacteriophage fused human PIK3CA E545K mutant at 10 uM by KINOMEscan analysis relative to control.
Assay [8] concerns the target Tyrosine-protein kinase JAK1 (Homo sapiens) (UniProt P23458). Put plainly: Inhibition of T7 bacteriophage fused human JAK1JH2 pseudokinase domain at 10 uM by KINOMEscan analysis relative to control.
Assay [9] addresses Inhibitor of nuclear factor kappa-B kinase subunit alpha (Homo sapiens) (UniProt O15111). The assay can be described thus: Inhibition of T7 bacteriophage fused human IKK-alpha at 10 uM by KINOMEscan analysis relative to control.
In assay [10] the target is Proto-oncogene tyrosine-protein kinase ROS (Homo sapiens) (UniProt P08922). The assay can be described thus: Inhibition of T7 bacteriophage fused human ROS1 at 10 uM by KINOMEscan analysis relative to control.
Assay [11] addresses Calcium/calmodulin-dependent protein kinase type II subunit delta (Homo sapiens) (UniProt Q13557). Put plainly: Inhibition of T7 bacteriophage fused human CAMK2D at 10 uM by KINOMEscan analysis relative to control.
Assay [12] concerns the target Serine/threonine-protein kinase RIO2 (Homo sapiens) (UniProt Q9BVS4). Put plainly: Inhibition of T7 bacteriophage fused human RIOK2 at 10 uM by KINOMEscan analysis relative to control.
The target in assay [13] is Serine/threonine-protein kinase RIO1 (Homo sapiens) (UniProt Q9BRS2). Put plainly: Inhibition of T7 bacteriophage fused human RIOK1 at 10 uM by KINOMEscan analysis relative to control.
The target of assay [14] is Mitogen-activated protein kinase kinase kinase 2 (Homo sapiens) (UniProt Q9Y2U5). Put plainly: Inhibition of T7 bacteriophage fused human MAP3K2 at 10 uM by KINOMEscan analysis relative to control; values are per cent of control.
Mitogen-activated protein kinase kinase kinase 2 (Homo sapiens), sequence (Q9Y2U5 whole entry, the tested form may be a part): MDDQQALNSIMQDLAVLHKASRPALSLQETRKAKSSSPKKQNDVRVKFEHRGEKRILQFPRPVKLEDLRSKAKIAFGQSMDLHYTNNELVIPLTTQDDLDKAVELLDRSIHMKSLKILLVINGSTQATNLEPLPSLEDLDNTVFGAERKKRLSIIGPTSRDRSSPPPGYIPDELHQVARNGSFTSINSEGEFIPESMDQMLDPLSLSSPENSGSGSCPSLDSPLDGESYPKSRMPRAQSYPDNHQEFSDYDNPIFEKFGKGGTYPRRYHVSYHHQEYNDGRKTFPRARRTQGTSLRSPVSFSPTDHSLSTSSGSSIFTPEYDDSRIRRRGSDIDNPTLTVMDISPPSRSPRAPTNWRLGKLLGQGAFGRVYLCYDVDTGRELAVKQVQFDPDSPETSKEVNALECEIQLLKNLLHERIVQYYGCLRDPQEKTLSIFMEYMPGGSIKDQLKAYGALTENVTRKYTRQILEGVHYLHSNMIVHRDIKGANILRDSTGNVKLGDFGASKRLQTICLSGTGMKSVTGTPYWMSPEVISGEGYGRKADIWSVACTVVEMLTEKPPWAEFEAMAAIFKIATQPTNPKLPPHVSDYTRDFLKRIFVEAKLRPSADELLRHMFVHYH
Assay [15] addresses Mitogen-activated protein kinase kinase kinase kinase 4 (Homo sapiens) (UniProt O95819). Put plainly: Inhibition of T7 bacteriophage fused human MAP4K4 at 10 uM by KINOMEscan analysis relative to control; values are per cent of control.
The target of assay [16] is Mitogen-activated protein kinase 10 (Homo sapiens) (UniProt P53779). The assay can be described thus: Inhibition of T7 bacteriophage fused human JNK3 at 10 uM by KINOMEscan analysis relative to control; values are per cent of control.
Assay [17] concerns Phosphatidylinositol 4,5-bisphosphate 3-kinase catalytic subunit alpha isoform (Homo sapiens), P42336 [H1047L]. The assay can be described thus: Inhibition of T7 bacteriophage fused human PIK3CA H1047L mutant at 10 uM by KINOMEscan analysis relative to control.
The target of assay [18] is Phosphatidylinositol 4,5-bisphosphate 3-kinase catalytic subunit delta isoform (Homo sapiens) (UniProt O00329). Put plainly: Inhibition of T7 bacteriophage fused human PIK3CD at 10 uM by KINOMEscan analysis relative to control.
Phosphatidylinositol 4,5-bisphosphate 3-kinase catalytic subunit delta isoform (Homo sapiens), sequence (O00329 whole entry, the tested form may be a part, canonical isoform): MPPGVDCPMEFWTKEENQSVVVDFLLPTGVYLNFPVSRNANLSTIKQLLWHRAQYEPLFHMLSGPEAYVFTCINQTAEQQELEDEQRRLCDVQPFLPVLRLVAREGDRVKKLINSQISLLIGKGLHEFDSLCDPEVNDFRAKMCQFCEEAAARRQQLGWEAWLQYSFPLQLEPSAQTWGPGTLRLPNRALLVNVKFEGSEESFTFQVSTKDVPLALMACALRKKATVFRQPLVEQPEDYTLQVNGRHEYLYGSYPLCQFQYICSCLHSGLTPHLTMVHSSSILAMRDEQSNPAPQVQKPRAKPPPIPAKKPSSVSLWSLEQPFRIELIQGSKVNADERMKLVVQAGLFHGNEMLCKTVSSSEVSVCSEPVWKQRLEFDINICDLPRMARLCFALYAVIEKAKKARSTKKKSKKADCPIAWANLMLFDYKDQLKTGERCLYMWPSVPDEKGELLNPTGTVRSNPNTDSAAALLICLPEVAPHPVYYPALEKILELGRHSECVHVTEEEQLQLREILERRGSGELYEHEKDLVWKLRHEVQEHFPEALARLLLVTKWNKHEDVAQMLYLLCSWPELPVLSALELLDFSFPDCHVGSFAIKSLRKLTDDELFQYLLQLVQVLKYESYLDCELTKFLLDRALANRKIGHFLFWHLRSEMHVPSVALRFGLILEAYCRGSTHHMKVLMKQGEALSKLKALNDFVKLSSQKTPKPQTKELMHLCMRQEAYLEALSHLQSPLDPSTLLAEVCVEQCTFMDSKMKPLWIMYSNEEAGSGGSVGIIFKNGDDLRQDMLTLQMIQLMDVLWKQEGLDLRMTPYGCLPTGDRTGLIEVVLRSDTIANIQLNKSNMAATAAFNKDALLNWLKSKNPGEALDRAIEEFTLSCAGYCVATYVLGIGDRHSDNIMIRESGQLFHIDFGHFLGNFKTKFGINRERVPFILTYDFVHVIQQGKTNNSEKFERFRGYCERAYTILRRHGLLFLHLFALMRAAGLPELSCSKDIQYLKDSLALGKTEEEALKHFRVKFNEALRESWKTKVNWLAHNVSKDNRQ
Assay [19] concerns the target Eukaryotic translation initiation factor 2-alpha kinase 1 (Homo sapiens) (UniProt Q9BQI3). Put plainly: Inhibition of T7 bacteriophage fused human EIF2AK1 at 10 uM by KINOMEscan analysis relative to control.
In assay [20] the test system is Mast/stem cell growth factor receptor Kit (Homo sapiens), P10721 [L576P]. The assay can be described thus: Inhibition of T7 bacteriophage fused human KIT L576P mutant at 10 uM by KINOMEscan analysis relative to control.
Assay [21] deals with RAF proto-oncogene serine/threonine-protein kinase (Homo sapiens) (UniProt P04049). The assay can be described thus: Inhibition of T7 bacteriophage fused human RAF1 at 10 uM by KINOMEscan analysis relative to control.
For assay [22], the target named is Homeodomain-interacting protein kinase 2 (Homo sapiens) (UniProt Q9H2X6). Put plainly: Inhibition of T7 bacteriophage fused human HIPK2 at 10 uM by KINOMEscan analysis relative to control.
Homeodomain-interacting protein kinase 2 (Homo sapiens), sequence (Q9H2X6 whole entry, looked up, the tested form may be a part): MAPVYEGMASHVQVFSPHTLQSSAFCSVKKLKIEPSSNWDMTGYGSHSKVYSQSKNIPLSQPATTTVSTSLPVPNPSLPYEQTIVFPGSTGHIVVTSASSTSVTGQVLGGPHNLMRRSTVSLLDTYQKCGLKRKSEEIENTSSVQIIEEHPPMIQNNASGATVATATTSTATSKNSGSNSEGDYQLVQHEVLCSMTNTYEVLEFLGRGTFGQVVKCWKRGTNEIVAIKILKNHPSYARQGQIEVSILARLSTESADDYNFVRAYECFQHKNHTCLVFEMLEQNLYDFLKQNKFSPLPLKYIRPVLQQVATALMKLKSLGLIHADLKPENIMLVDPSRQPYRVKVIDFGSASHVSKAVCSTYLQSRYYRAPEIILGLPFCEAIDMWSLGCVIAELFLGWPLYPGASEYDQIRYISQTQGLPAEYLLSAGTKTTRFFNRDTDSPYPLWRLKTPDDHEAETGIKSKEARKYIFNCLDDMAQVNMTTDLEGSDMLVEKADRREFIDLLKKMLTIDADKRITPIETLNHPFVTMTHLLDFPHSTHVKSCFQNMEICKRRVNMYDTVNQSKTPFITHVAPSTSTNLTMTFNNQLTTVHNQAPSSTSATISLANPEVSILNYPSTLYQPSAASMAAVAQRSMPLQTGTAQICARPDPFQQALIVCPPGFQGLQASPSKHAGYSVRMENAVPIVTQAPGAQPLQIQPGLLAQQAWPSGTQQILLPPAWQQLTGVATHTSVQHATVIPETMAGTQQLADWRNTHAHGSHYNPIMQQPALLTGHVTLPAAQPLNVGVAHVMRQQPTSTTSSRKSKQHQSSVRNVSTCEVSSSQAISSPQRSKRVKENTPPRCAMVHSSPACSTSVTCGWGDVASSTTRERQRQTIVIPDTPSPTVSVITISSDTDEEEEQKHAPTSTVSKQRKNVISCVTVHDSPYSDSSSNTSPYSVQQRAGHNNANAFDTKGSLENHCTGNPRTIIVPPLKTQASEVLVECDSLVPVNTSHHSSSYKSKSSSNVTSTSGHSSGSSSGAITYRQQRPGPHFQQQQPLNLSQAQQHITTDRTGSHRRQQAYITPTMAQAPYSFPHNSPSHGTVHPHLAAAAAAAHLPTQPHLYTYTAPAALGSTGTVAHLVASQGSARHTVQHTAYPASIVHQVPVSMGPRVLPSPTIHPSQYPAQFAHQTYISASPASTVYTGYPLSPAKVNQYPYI
The subject of assay [23] is Mast/stem cell growth factor receptor Kit (Homo sapiens), P10721 [D816V]. Put plainly: Inhibition of T7 bacteriophage fused human KIT D816V mutant at 10 uM by KINOMEscan analysis relative to control.
The target of assay [24] is Homeodomain-interacting protein kinase 3 (Homo sapiens) (UniProt Q9H422). Put plainly: Inhibition of T7 bacteriophage fused human HIPK3 at 10 uM by KINOMEscan analysis relative to control; values are per cent of control.
In assay [25] the test system is Receptor-type tyrosine-protein kinase FLT3 (Homo sapiens), P36888 [D835Y]. Put plainly: Inhibition of T7 bacteriophage fused human FLT3 D835Y mutant at 10 uM by KINOMEscan analysis relative to control.
For assay [26], the target named is Serine/threonine-protein kinase Nek2 (Homo sapiens) (UniProt P51955). The assay can be described thus: Inhibition of T7 bacteriophage fused human NEK2 at 10 uM by KINOMEscan analysis relative to control.
In assay [27] the target is Atypical kinase COQ8B, mitochondrial (Homo sapiens) (UniProt Q96D53). The assay can be described thus: Inhibition of T7 bacteriophage fused human ADCK4 at 10 uM by KINOMEscan analysis relative to control.
The target in assay [28] is Protein kinase C theta type (Homo sapiens) (UniProt Q04759). The assay can be described thus: Inhibition of T7 bacteriophage fused human PRKCQ at 10 uM by KINOMEscan analysis relative to control.
The target in assay [29] is Serine/threonine-protein kinase BRSK2 (Homo sapiens) (UniProt Q8IWQ3). The assay can be described thus: Inhibition of T7 bacteriophage fused human BRSK2 at 10 uM by KINOMEscan analysis relative to control.
Serine/threonine-protein kinase BRSK2 (Homo sapiens), sequence (Q8IWQ3 whole entry, the tested form may be a part): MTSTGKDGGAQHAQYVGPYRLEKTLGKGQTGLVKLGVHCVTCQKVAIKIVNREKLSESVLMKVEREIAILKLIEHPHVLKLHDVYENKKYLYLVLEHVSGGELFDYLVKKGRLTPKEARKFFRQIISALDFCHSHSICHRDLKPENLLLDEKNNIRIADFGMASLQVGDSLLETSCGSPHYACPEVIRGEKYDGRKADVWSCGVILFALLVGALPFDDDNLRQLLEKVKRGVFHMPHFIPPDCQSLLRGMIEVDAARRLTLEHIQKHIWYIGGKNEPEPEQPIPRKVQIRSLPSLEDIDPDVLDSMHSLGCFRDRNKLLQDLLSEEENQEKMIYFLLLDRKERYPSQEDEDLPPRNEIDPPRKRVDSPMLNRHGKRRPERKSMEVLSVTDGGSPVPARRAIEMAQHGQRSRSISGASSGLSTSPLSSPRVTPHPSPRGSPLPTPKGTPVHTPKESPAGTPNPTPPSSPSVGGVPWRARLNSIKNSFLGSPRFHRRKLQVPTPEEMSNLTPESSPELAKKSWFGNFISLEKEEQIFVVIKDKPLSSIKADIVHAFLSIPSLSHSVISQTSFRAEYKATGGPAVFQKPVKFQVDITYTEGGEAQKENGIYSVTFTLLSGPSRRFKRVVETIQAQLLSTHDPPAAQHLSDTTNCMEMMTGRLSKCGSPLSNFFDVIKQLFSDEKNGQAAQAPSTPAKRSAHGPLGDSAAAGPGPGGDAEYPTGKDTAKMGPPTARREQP
The target of assay [30] is Serine/threonine-protein kinase Chk2 (Homo sapiens) (UniProt O96017). The assay can be described thus: Inhibition of CHK2 Lys2 labeling site in human PC-3 cell lysate at 10 uM by KiNativ profiling analysis relative to control. Type of assay: subcellular.

Serine/threonine-protein kinase PRP4 homolog (Homo sapiens), sequence (Q13523 whole entry, the tested form may be a part): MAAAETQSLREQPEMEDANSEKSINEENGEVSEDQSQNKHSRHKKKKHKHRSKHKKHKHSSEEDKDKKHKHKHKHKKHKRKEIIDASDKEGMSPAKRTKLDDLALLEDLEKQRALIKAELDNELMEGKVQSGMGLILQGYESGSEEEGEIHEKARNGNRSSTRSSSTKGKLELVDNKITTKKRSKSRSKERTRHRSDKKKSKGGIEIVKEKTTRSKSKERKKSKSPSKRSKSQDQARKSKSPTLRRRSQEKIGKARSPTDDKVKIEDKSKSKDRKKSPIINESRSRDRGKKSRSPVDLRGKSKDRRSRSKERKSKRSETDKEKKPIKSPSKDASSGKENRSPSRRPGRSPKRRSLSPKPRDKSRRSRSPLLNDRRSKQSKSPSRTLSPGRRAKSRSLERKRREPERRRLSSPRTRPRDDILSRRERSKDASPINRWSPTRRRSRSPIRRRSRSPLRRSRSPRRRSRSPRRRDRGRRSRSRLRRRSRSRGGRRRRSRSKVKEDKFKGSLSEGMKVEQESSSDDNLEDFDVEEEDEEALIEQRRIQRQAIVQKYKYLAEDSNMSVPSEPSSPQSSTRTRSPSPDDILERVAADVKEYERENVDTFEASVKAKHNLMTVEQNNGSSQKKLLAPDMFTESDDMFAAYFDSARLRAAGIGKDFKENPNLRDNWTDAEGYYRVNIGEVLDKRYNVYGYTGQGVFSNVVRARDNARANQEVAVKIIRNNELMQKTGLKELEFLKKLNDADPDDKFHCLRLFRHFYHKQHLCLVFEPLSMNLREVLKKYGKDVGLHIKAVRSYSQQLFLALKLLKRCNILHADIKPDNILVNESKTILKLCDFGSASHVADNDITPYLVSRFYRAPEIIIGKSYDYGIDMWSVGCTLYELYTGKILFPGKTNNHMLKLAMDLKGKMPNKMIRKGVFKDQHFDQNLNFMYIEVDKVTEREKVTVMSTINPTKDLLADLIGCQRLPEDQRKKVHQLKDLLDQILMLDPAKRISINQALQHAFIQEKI
Calcium/calmodulin-dependent protein kinase type II subunit delta (Homo sapiens), sequence (Q13557 whole entry, the tested form may be a part): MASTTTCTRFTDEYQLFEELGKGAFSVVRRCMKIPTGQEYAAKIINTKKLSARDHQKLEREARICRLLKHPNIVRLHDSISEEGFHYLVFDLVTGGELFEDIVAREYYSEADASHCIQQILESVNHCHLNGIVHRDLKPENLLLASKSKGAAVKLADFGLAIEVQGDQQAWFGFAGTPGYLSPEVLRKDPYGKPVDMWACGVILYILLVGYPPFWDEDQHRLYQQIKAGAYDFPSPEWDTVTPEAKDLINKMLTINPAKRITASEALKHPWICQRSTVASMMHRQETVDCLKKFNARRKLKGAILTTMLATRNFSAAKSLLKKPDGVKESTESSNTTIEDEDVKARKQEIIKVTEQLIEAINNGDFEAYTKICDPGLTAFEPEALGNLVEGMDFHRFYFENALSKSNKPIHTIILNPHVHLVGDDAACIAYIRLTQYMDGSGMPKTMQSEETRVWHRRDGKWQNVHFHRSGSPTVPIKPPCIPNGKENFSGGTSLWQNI

The term inhibition denotes the drop in the measured response relative to a control, in per cent. In the case of `COc1cc(N2CCC(N3CCN(C)CC3)CC2)ccc1Nc1ncc2c(n1)N(C)c1ccccc1C(=O)N2C`, the inhibition in assay [1] worked out at 93%; in assay [4], 65%; in assay [5] it was 100%; in assay [6], 83%; in assay [7], 100%; in assay [8] it was 92%. For the same compound, the inhibition in [9] is 100%; in assay [10], 12%; in assay [11], 28%; in assay [12] it was 100%; in assay [13], 100%; in assay [17] it was 20%. In addition, the inhibition in assay [18] turned out to be 62%; in assay [19] it was 100%; in assay [20], 100%; in assay [21], 100%; in assay [22], 88%; in assay [23], 72%. The inhibition came to 100% in assay [25]; 100% in assay [26]; 94% in assay [27]; 100% in assay [28]; 64% in assay [29]. The residual activity in assay [2] was 96%; in [3] it was 93%; in assay [14], 97%; in assay [15], 85%; in assay [16], 77%; in assay [24] it was 89%.
`COc1cc(C(=O)N2CCC(N3CCN(C)CC3)CC2)ccc1Nc1ncc2c(n1)N(C1CCCC1)c1ccccc1C(=O)N2C`: the inhibition in assay [30] stood at 0%.

The values are drawn from ChEMBL document CHEMBL5678810.
